Experimental data from the supplement of paper PMC10307832.

What was measured:
Test in all cases: relative viability (nuclei count vs DMSO), 5 days (fraction); higher = more cells survive
KIN001-266 + Olaparib = compound: CCN1CCC(CC1)N2C=C(N=N2)CNC3=CC4=C(C(=CN=C4C(=C3)Cl)C#N)NC5=CC(=C(C=C5)F)Cl [KIN001-266] + O=C(c1cc(Cc2n[nH]c(=O)c3ccccc23)ccc1F)N1CCN(C(=O)C2CC2)CC1 [Olaparib] (partner 8 µM)
In short: (§1)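 After 5 days of treatment, lung cancer cells in 1536-well plates were fixed and stained in a single step (final 0.05% Triton X-100, 1% formaldehyde, 1 ug/ml Hoechst) and their nuclei counted on 4× images. Treatment had been applied by pin tool the day after seeding as one drug alone or as a fixed anchor-drug dose with five library-drug doses (not always all listed) in √10 steps. Relative viability is the nuclei count of treated wells divided by that of vehicle wells, and values are medians of duplicate plates.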

KIN001-266 + Linsitinib = compound: CCN1CCC(CC1)N2C=C(N=N2)CNC3=CC4=C(C(=CN=C4C(=C3)Cl)C#N)NC5=CC(=C(C=C5)F)Cl [KIN001-266] + C[C@]1(O)C[C@@H](c2nc(-c3ccc4ccc(-c5ccccc5)nc4c3)c3c(N)nccn32)C1 [Linsitinib] (partner 1 µM)
In short: as §1

KIN001-266 + Pemetrexed = compound: CCN1CCC(CC1)N2C=C(N=N2)CNC3=CC4=C(C(=CN=C4C(=C3)Cl)C#N)NC5=CC(=C(C=C5)F)Cl [KIN001-266] + Nc1nc2[nH]cc(CCc3ccc(C(=O)N[C@@H](CCC(=O)O)C(=O)O)cc3)c2c(=O)[nH]1 [Pemetrexed] (partner 0.2 µM)
In short: as §1

KIN001-266 + Vorinostat = compound: CCN1CCC(CC1)N2C=C(N=N2)CNC3=CC4=C(C(=CN=C4C(=C3)Cl)C#N)NC5=CC(=C(C=C5)F)Cl [KIN001-266] + O=C(CCCCCCC(=O)Nc1ccccc1)NO [Vorinostat] (partner 1 µM)
In short: as §1

| Cell Line | relative viability (KIN001-266 + Olaparib; first compound 0.08 µM) | relative viability (KIN001-266 + Olaparib; first compound 0.253 µM) | relative viability (KIN001-266 + Olaparib; first compound 0.8 µM) | relative viability (KIN001-266 + Olaparib; first compound 2.53 µM) | relative viability (KIN001-266 + Olaparib; first compound 8 µM) | relative viability (KIN001-266 + Linsitinib; first compound 0.08 µM) | relative viability (KIN001-266 + Linsitinib; first compound 0.253 µM) | relative viability (KIN001-266 + Linsitinib; first compound 0.8 µM) | relative viability (KIN001-266 + Linsitinib; first compound 2.53 µM) | relative viability (KIN001-266 + Linsitinib; first compound 8 µM) | relative viability (KIN001-266 + Pemetrexed; first compound 0.08 µM) | relative viability (KIN001-266 + Pemetrexed; first compound 0.253 µM) | relative viability (KIN001-266 + Pemetrexed; first compound 0.8 µM) | relative viability (KIN001-266 + Pemetrexed; first compound 2.53 µM) | relative viability (KIN001-266 + Pemetrexed; first compound 8 µM) | relative viability (KIN001-266 + Vorinostat; first compound 0.08 µM) | relative viability (KIN001-266 + Vorinostat; first compound 0.253 µM) | relative viability (KIN001-266 + Vorinostat; first compound 0.8 µM) | relative viability (KIN001-266 + Vorinostat; first compound 2.53 µM) | relative viability (KIN001-266 + Vorinostat; first compound 8 µM) |
| --- | --- | --- | --- | --- | --- | --- | --- | --- | --- | --- | --- | --- | --- | --- | --- | --- | --- | --- | --- | --- |
| HCC-78 | 0.832 | 0.793 | 0.767 | 0.841 | 0.677 | 0.465 | 0.516 | 0.451 | 0.459 | 0.642 | 0.874 | 0.832 | 0.872 | 0.873 | 0.91 | 0.582 | 0.36 | 0.419 | 0.493 | 0.453 |
| HCC-366 | 0.403 | 0.339 | 0.271 | 0.3 | 0.227 | 0.547 | 0.607 | 0.821 | 0.476 | 0.545 | 0.207 | 0.157 | 0.144 | 0.184 | 0.24 | 0.436 | 0.338 | 0.294 | 0.373 | 0.443 |
| HCC-827 | 0.577 | 0.602 | 0.557 | 0.585 | 0.528 | 0.952 | 1.03 | – | 0.945 | 0.841 | 0.264 | 0.259 | 0.166 | 0.214 | 0.23 | 0.825 | 0.869 | 0.159 | 0.761 | 0.926 |
| HOP-62 | 0.5 | 0.475 | 0.381 | 0.46 | 0.319 | 0.961 | 1.01 | 1.09 | 0.945 | 0.439 | 0.313 | 0.304 | 0.469 | 0.353 | 0.381 | 0.812 | 0.661 | 0.786 | 0.685 | 0.527 |
| IA-LM | 0.884 | 0.791 | 0.845 | 0.853 | 0.625 | 0.51 | 0.435 | 0.58 | 0.584 | 0.641 | – | – | – | – | – | 0.932 | 0.966 | 0.971 | – | 1.01 |
| LC-2-ad | 0.706 | 0.727 | 0.664 | 0.693 | 0.635 | 0.879 | 0.842 | 0.924 | 0.808 | 0.873 | 0.288 | 0.301 | 0.272 | 0.271 | 0.275 | 0.644 | 0.721 | 0.655 | 0.788 | 0.704 |
| LCLC-97TM1 | 0.302 | 0.295 | 0.406 | – | 0.167 | 0.226 | 0.197 | 0.18 | 0.176 | 0.192 | 0.193 | 0.191 | 0.171 | – | 0.227 | 0.867 | 0.799 | 0.627 | – | 0.614 |
| LCLC-103H | 0.727 | 0.762 | 0.722 | 0.742 | 0.756 | 1.02 | 1.04 | 1.16 | 1.09 | 0.96 | 0.471 | 0.482 | 0.47 | 0.426 | 0.514 | 0.82 | 0.84 | 0.762 | 0.843 | 0.685 |
| LK-2 | 0.879 | 0.689 | 0.672 | 0.557 | 0.574 | 0.583 | 0.603 | 0.64 | 0.516 | 0.655 | 0.275 | 0.237 | 0.211 | 0.158 | 0.273 | 0.419 | 0.395 | 0.417 | 0.531 | 0.524 |
| LOU-NH91 | 0.909 | 0.903 | 0.761 | 0.842 | 0.757 | 0.968 | 0.952 | 0.652 | 0.896 | 0.73 | 0.369 | 0.392 | 0.385 | 0.378 | 0.425 | 0.96 | 0.924 | 0.71 | 0.746 | 0.797 |
| NCI-H727 | 0.679 | 0.649 | 0.626 | 0.683 | 0.531 | 0.296 | 0.283 | 0.237 | 0.284 | 0.333 | – | – | – | – | – | 1.13 | 1.29 | 1.31 | 1.08 | 1.14 |
| NCI-H1299 | 0.941 | 1.03 | 0.933 | 0.859 | 0.775 | 0.955 | 0.984 | 1 | 0.946 | 0.899 | – | – | – | – | – | – | – | – | – | – |
| NCI-H1563 | – | – | – | – | – | 1.16 | 1.22 | 1.25 | 1.16 | 1.1 | 0.885 | 0.714 | 0.865 | 0.793 | 0.914 | – | – | – | – | – |
| NCI-H1648 | 1 | 0.711 | 0.816 | 0.55 | 0.996 | – | – | – | – | – | 0.641 | 0.791 | 0.66 | 0.626 | 0.758 | 0.438 | 0.502 | 0.515 | 0.453 | 0.422 |
| NCI-H1650 | 0.708 | 0.751 | 0.655 | 0.587 | 0.437 | – | – | – | – | – | 0.371 | 0.409 | 0.412 | 0.338 | 0.36 | 0.566 | 0.622 | 0.668 | 0.488 | 0.337 |
| NCI-H1703 | 0.451 | 0.386 | 0.435 | 0.391 | 0.401 | 0.786 | 0.493 | 1.11 | 0.488 | 0.747 | – | – | – | – | – | – | – | – | – | – |
| NCI-H1792 | 0.384 | 0.418 | 0.485 | 0.369 | 0.399 | 0.544 | 0.471 | 0.515 | 0.603 | 0.533 | 0.882 | 0.9 | 0.81 | 0.757 | 0.857 | – | – | – | – | – |
| NCI-H2170 | 0.634 | 0.548 | 0.541 | 0.515 | 0.416 | – | – | – | – | – | 0.256 | 0.256 | 0.248 | 0.248 | 0.25 | 0.853 | 0.759 | 0.828 | 0.752 | 0.83 |
| NCI-H2342 | 0.547 | 0.4 | 0.427 | 0.407 | 0.419 | – | – | – | – | – | 0.785 | 0.738 | 0.619 | 0.705 | 0.91 | 0.693 | 0.867 | 0.876 | 0.776 | 1.16 |
| SW 900 | 0.964 | 0.88 | 0.877 | 0.821 | 0.335 | – | – | – | – | – | 0.494 | 0.496 | 0.491 | 0.47 | 0.43 | 0.557 | 0.549 | 0.466 | 0.426 | 0.319 |
